Our source for the MIC values is ChEMBL document CHEMBL1134158, “Antimycobacterial in vitro activity of cobalt(II) isonicotinoylhydrazone complexes. Part 10” (2001).

≈ marks a conversion by molar mass, not a printed value.

This assay concerns Mycobacterium tuberculosis. In words: In vitro anti-mycobacterial activity against Mycobacterium tuberculosis H37Rv. It counts as functional.

For the compound `CO[C@H]1/C=C/O[C@@]2(C)Oc3c(C)c(O)c4c(O)c(c(/C=N/N5CCN(C)CC5)c(O)c4c3C2=O)NC(=O)/C(C)=C\C=C\[C@H](C)[C@H](O)[C@@H](C)[C@@H](O)[C@@H](C)[C@H](OC(C)=O)[C@@H]1C` [RIFAMPIN], 0.06 µg/mL (≈ 0.0729 µM) was the least that counted as inhibitory (MIC). Compound `NNC(=O)c1ccncc1` [ISONIAZID] had an MIC of 0.025 µg/mL (≈ 0.182 µM).

As usually defined, the MIC is the smallest concentration in the dilution series that meets the test's criterion for growth inhibition. A low value points to a more susceptible organism.
